Test results as given in PubChem BioAssay (NCI).
Where “and” joins values, the source holds several entries; their conditions need not be identical. Equal values may be shown once.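 Grown in 96-well plates, cells were treated for 48 hours with each compound at five concentrations. Insufficient inhibition: endpoint recorded as highest concentration tested. The concentration for 50% growth inhibition is given as GI50. The concentration for full growth arrest is given as TGI.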 Starred links: 1 amine or outer side, 2 acyl side, 3 side chain; linkers in the order of their positions; H or OH if unused. Non-standard residues stand in square brackets, D forms with d. Residues, ends and D or L forms follow the SMILES beside them. *: point of attachment. X14 = C/C=C/CC(C)C(O)[C@H](N[*:1])C(=O)[*:2]; Decanoyl = CCCCCCCCCC(=O)*; Leu(ol) = CC(C)C[C@H](N)CO; Iva = CC[C@](C)(N)C(=O)O; Aib = CC(C)(N)C(=O)O

Test system: MDA-MB-468 breast
Test: DTP human tumour cell line panel, 48 h

Structure (SMILES)	GI50	TGI
CCOC(=O)[C@@H](C)C[C@H](Cc1ccccc1)NC(=O)c1csc([C@@H](C[C@H](C(C)C)N(C)C(=O)[C@@H](NC(=O)[C@H]2C[C@H](O)CCN2C)C(C)C)OC(C)=O)n1	< 1.67 nM	> 16700 nM
N#C/C(=C\c1ccc(F)cc1)n1nc2cccc(F)c2n1	3050 nM	> 100000 nM
CCC(C)CC(C)C(=O)c1c(O)ccn(O)c1=O (centres undefined)	2100 nM	9470 nM
NCCCNc1nc2ccc(Cl)cc2c2c(=O)c3cc(F)ccc3sc12	2900 nM	10100 nM
CCN1C(=O)N(CC)C2C1NC(=S)N2/N=C/C=C/c1ccccc1OC (centres undefined)	35.3 nM	38900 nM
Brc1ccc(Nc2nc3ccccc3nc2Nc2ccc(Br)cc2)cc1	365 nM	2580 nM
COc1ccc(C2CC(c3ccc4ccccc4c3)=NN2c2nc(O)c(C3=c4cc(OC)ccc4=NC3=O)s2)cc1 (centres undefined)	46.2 nM	200 nM
O=C1/C(=C\c2ccccc2)CN(C(=O)c2ccccc2)C/C1=C\c1ccccc1	1690 nM	3560 nM
O=c1[nH]c(F)nc2c1ncn2C1OC(CO)C(O)C1O (centres undefined)	> 100000 nM	> 100000 nM
O=C(NS(=O)(=O)c1ccc(NC[C@H]2COCCO2)c([N+](=O)[O-])c1)c1ccc(N2CCN(CC3=C(c4ccc(Cl)cc4)CC4(CCC4)CC3)CC2)cc1Oc1cnc2[nH]ccc2c1	1790 nM	4350 nM
O=C(O)c1ccc(C(=O)O)c(C(=O)O)c1.[NH-]C1CCCCC1[NH-].[Pt+2]	35700 nM	> 100000 nM
O=C(/C=C/c1cccc(S(=O)(=O)Nc2ccccc2)c1)NO	241 nM	5360 nM
CN(CSc1ccc(Cl)cc1)c1ccc(CSc2ccc(Cl)cc2)cc1	1850 nM	5070 nM
NC(=O)CCc1ccccc1Oc1nccc(-c2c(-c3ccc(F)cc3)ncn2C2CCNCC2)n1	10000 nM	> 25000 nM
FC(F)(F)c1ccc(-c2ncc(-c3ccc(C(F)(F)F)cc3)c(NCc3cc(C(F)(F)F)cc(C(F)(F)F)c3)n2)cc1	3200 nM	15500 nM
C/C=C/CC(C)C(O)[C@H](NC(=O)[C@@H]1CCCN1C(=O)C(C)(C)NC(=O)CCCCCCCCC)C(=O)N[C@@](C)(CC)C(=O)N[C@@H](CCC(N)=O)C(=O)N[C@H](CCC(N)=O)C(=O)NC(C)(C)C(=O)N[C@@](C)(CC)C(=O)N[C@@H](CCC(N)=O)C(=O)N[C@H](CC(C)C)C(=O)N[C@H](CO)CC(C)C (stereo partly drawn) (Decanoyl-[Aib]P[X14][Iva]Q[dQ][Aib][Iva]Q[dL][Leu(ol)])	32.9 nM	260 nM
CC(C)OCc1cc(CN2CCN(c3cccc(Cl)c3)CC2)c(O)c2ncccc12	346 nM	1670 nM
COc1cc(/C=C/C(=O)c2c(C)nc3ccccc3c2C)ccc1OCCCCOc1cc2c(cc1OC)C(=O)N1CCC[C@H]1C=N2	235 nM	625 nM
CCC(C)(C)[C@H](NC(=O)[C@H]1CCCCN1C)C(=O)N(C)[C@H](C[C@@H](OC(C)=O)c1nc(C(=O)N[C@@H](Cc2ccccc2)C[C@H](C)C(=O)O)cs1)C(C)C	< 1.67 nM	< 1.67 nM

Structure (SMILES)	GI50	TGI
NC(=N\N=C/c1ccc(Cl)cc1Cl)/C(N)=N\N=C/c1ccc(Cl)cc1Cl	6870 nM	> 100000 nM
CCCCN(CC)CCCCCCCCCCN1CCCc2cc(OC)ccc21	1590 nM	3580 nM
O=C1c2cccnc2C(=O)c2c1c(C(=O)OCCc1ccccn1)c1ccccn21	1840 nM	5060 nM
COc1ncc(-c2ccc3nccc(C#CCN4CCN(S(C)(=O)=O)CC4)c3c2)cc1NS(=O)(=O)c1ccc(F)cc1F	19.8 nM	122 nM
FC(F)(F)c1cc(-c2ncn(/C=C\c3nnco3)n2)cc(C(F)(F)F)c1	85.4 nM	740 nM
O=C1NC(=O)C(c2ccccc2)=C1Nc1ccccc1	> 25000 nM	> 25000 nM
c1ccc(-c2cn(-c3ccccc3)c(-c3ccccc3)n2)cc1	10100 nM	30500 nM
Cc1cc(C(O)(c2ccc(Nc3ccccc3)cc2)c2ccc(Nc3ccc(S(=O)(=O)O)cc3)cc2)ccc1N (centres undefined)	480 nM	2480 nM
CN1CCN(c2ccc(Nc3nc(NCCNS(=O)(=O)c4ccc5ccccc5c4)c4sccc4n3)cc2)CC1	2830 nM	12200 nM
O=C(Cc1ccc(Nc2ccnc(C(F)(F)F)c2)cc1)N/N=C/c1ccccc1O	3000 nM	39300 nM
CCCOc1ccc(/C=N/Nc2cc(C)nc3ccc(Cl)cc23)cc1	1690 nM	3190 nM
COc1cc2c(cc1OCCCCn1c(-c3cccs3)nc3ccccc31)N=C[C@@H]1CCCN1C2=O	333 nM	1600 nM
Cc1[nH]c(C(=O)Nc2ccc(S(=O)(=O)N3CCCCC3)cc2OCCOCCOCCOCCOCCOCCOCCOCCOCCOc2cc(S(=O)(=O)N3CCCCC3)ccc2NC(=O)c2[nH]c(C)c3c2CCCCC3=O)c2c1C(=O)CCCC2	191 nM	794 nM
COC(=O)[C@@H](C)C[C@H](Cc1ccccc1)NC(=O)c1csc([C@@H](C[C@H](C(C)C)N(C)C(=O)C2(NC(=O)[C@H]3CCCCN3C)CCC2)OC(C)=O)n1	1.23 nM and 2.5 nM	> 25000 nM
Oc1ccc(Cc2ccc(O)c(C3CC(c4ccc(Cl)cc4)=NN3)c2)cc1C1CC(c2ccc(Cl)cc2)=NN1 (centres undefined)	2850 nM	9440 nM
CCCCCCc1cc2cc(-c3csc(/C=C/c4ccccc4)n3)c(=O)oc2cc1O	6100 nM	28700 nM
O=C(Nc1ccc(I)cc1)c1cccc([N+](=O)[O-])c1O	2070 nM	7400 nM
O=Cc1ccc(-c2ccc(-c3ccc(C=O)o3)[se]2)o1	22600 nM	> 100000 nM
